Measured values: patent US9028845B2, “Chimeric immunomodulatory compounds and methods of using the same-IV” (Dynavax Technologies Corporation, priority 2001, dated 2015)

Tests used:
human PBMCs = assay: Human PBMC cytokine response assay (IFN-γ and IFN-α in cell-free medium by ELISA), with or without cPLGA;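 for IFN-α (pg/ml) mean: 20 µg/mL compound for 24 hours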;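 for IFN-γ (pg/ml) mean: 20 µg/mL compound for 24 hours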; format: cell-based; settings: for IFN-γ (pg/ml) 28065: donor 28065 (high background), 1000 = outside assay limits; for IFN-γ (pg/ml) 28065 / IFN-α (pg/ml) 28065 / IFN-α (pg/ml) 28066 / IFN-γ (pg/ml) 28066 / IFN-α (pg/ml) 28067 / IFN-γ (pg/ml) 28067 / IFN-α (pg/ml) 28068 / IFN-γ (pg/ml) 28068 / IFN-α (pg/ml) mean / IFN-γ (pg/ml) mean: 20 ug/ml, + PLGA = premixed with 100 μg/ml cPLGA; for IFN-γ (pg/ml) 28065 / IFN-α (pg/ml) 28065 / IFN-α (pg/ml) 28066 / IFN-γ (pg/ml) 28066 / IFN-α (pg/ml) 28067 / IFN-γ (pg/ml) 28067 / IFN-α (pg/ml) 28068 / IFN-γ (pg/ml) 28068 / IFN-α (pg/ml) mean / IFN-γ (pg/ml) mean / IFN-α induction (FIG. 10), in words: 24 h; for IFN-α (pg/ml) 28065: donor 28065; for IFN-α (pg/ml) 28066 / IFN-γ (pg/ml) 28066: donor 28066; for IFN-α (pg/ml) 28067 / IFN-γ (pg/ml) 28067: donor 28067; for IFN-α (pg/ml) 28068 / IFN-γ (pg/ml) 28068: donor 28068; for IFN-α (pg/ml) mean / IFN-γ (pg/ml) mean: mean of donors 28065-28068; for IFN-α induction (FIG. 10), in words: PBMCs from 8 donors, 20 μg/ml
CD19+ B cells = assay: Human B cell proliferation assay (3H-thymidine incorporation); settings: for cpm1 / cpm2 / cpm3 / mean cpm / mean of both: B cells, Experiment B; for mean of both: mean of donors 121 and 194; for B cell proliferation (FIG. 11), in words: purified human B cells, 5 μg/ml, 96 h

| Substance | IFN-γ (pg/ml) 28065 (human PBMCs) | IFN-α (pg/ml) 28065 (human PBMCs) | IFN-α (pg/ml) 28066 (human PBMCs) | IFN-γ (pg/ml) 28066 (human PBMCs) | IFN-α (pg/ml) 28067 (human PBMCs) | IFN-γ (pg/ml) 28067 (human PBMCs) | IFN-α (pg/ml) 28068 (human PBMCs) | IFN-γ (pg/ml) 28068 (human PBMCs) | IFN-α (pg/ml) mean (human PBMCs) | IFN-γ (pg/ml) mean (human PBMCs) | cpm1 (CD19+ B cells; donor 121, 2 μg/ml) | cpm2 (CD19+ B cells; donor 121, 2 μg/ml) | cpm3 (CD19+ B cells; donor 121, 2 μg/ml) | mean cpm (CD19+ B cells; donor 121 mean, 2 μg/ml) | cpm1 (CD19+ B cells; donor 194, 2 μg/ml) | cpm2 (CD19+ B cells; donor 194, 2 μg/ml) | cpm3 (CD19+ B cells; donor 194, 2 μg/ml) | mean cpm (CD19+ B cells; donor 194 mean, 2 μg/ml) | mean of both (CD19+ B cells; 2 μg/ml) | IFN-α induction (FIG. 10), in words (human PBMCs) | further results |
| --- | --- | --- | --- | --- | --- | --- | --- | --- | --- | --- | --- | --- | --- | --- | --- | --- | --- | --- | --- | --- | --- |
| 5′-TCGTCG-3′-C12-5′-ACGTTCG-3′-C12-5′-AGATGAT-3′ [Compound C-19] | 84 pg/mL | 0 pg/mL | 1 pg/mL | 8 pg/mL | 0 pg/mL | 1 pg/mL | 13 pg/mL | 2 pg/mL | 4 pg/mL | 24 pg/mL | 858 cpm | 1099 cpm | 926 cpm | 961 cpm | 371 cpm | 403 cpm | 312 cpm | 362 cpm | 662 cpm |  | immunomodulatory activity (IFN-γ / IFN-α secretion), in words (human PBMCs; used alone (no cPLGA)): did not show activity; B cell proliferation, in words (CD19+ B cells; 2 μg/ml, 48 h plus 8 h 3H-thymidine pulse): inactive |
| 5′-TCGTCG-3′-HME-5′-ACGTTCG-3′-HME-5′-AGATGAT-3′ [Compound C-25] | 541 pg/mL | 11 pg/mL | 0 pg/mL | 6 pg/mL | 22 pg/mL | 19 pg/mL | 79 pg/mL | 337 pg/mL | 28 pg/mL | 226 pg/mL | 34360 cpm | 35016 cpm | 26480 cpm | 31952 cpm | 16060 cpm | 19509 cpm | 17384 cpm | 17651 cpm | 24802 cpm |  |  |
| 5′-TCGTCG-3′-TEG-5′-ACGTTCG-3′-TEG-5′-AGATGAT-3′ [Compound C-18] | 1000 pg/mL | 51 pg/mL | 9 pg/mL | 102 pg/mL | 16 pg/mL | 27 pg/mL | 162 pg/mL | 695 pg/mL | 59 pg/mL | 456 pg/mL |  | 17085 cpm | 14653 cpm | 15869 cpm | 10028 cpm | 12217 cpm | 10538 cpm | 10928 cpm | 13398 cpm |  |  |
| 5′-ACGTTCG-3′-HEG-5′-ACGTTCG-3′-HEG-5′-AGATGAT-3′ [Compound C-24] | 337 pg/mL | 28 pg/mL | 0 pg/mL | 2 pg/mL | 8 pg/mL | 4 pg/mL | 67 pg/mL | 116 pg/mL | 26 pg/mL | 115 pg/mL | 8206 cpm | 6789 cpm | 2799 cpm | 5931 cpm | 3979 cpm | 3407 cpm | 3468 cpm | 3618 cpm | 4775 cpm |  | IFN-α (human PBMCs; Table 10, donor 28042): 0 pg/mL; IFN-γ (human PBMCs; Table 10, donor 28042): 148 pg/mL; IFN-α (human PBMCs; Table 10, donor 28043): 0 pg/mL; IFN-γ (human PBMCs; Table 10, donor 28043): 156 pg/mL; IFN-α (human PBMCs; Table 10, donor 28044): 8 pg/mL; IFN-γ (human PBMCs; Table 10, donor 28044): 312 pg/mL; IFN-α (human PBMCs; Table 10, donor 28045): 0 pg/mL; IFN-γ (human PBMCs; Table 10, donor 28045): 26 pg/mL; IFN-α mean (human PBMCs; Table 10, mean of donors): 2 pg/mL; IFN-γ mean (human PBMCs; Table 10, mean of donors): 161 pg/mL |
| (5′-TCGTCGT-3′-HEG)2-glycerol-HEG-5′-TCGTCGT-3′ [Compound C-142] |  |  |  |  |  |  |  |  |  |  |  |  |  |  |  |  |  |  |  | induce high levels of IFN-α | B cell proliferation (FIG. 11), in words (CD19+ B cells): induce B cells to proliferate |
| (5′-TCGACGT-3′-HEG)3-trebler-HEG-5′-TCGACGT-3′ [Compound C-125] |  |  |  |  |  |  |  |  |  |  |  |  |  |  |  |  |  |  |  | induce high levels of IFN-α | B cell proliferation (FIG. 11), in words (CD19+ B cells): induce very little B cell proliferation |
